Reference: patent US20030207933A1, “Compositions and methods for increasing the sensitivity of apoptosis-resistant tumor cells to inducers of apoptosis” (priority 2002, published 2003)

What was measured:
overexpression of Bcl-2 = assay: Comparison with compounds reported to counteract Bcl-2; type: cell-based; details: at 2.5 [M; data not shown
From the text: W-188 was then compared to other compounds previously reported to counteract Bcl-2 (Marchetti, P., et al., J. Immunol., 1996, 157:4830; Hirsch, T., et al., Exp. Cell Res., 1998, 241:426).

caspase 3 = assay: Caspase 3 activity (DEVDase); type: cell-based
From the text: (§1) However, more recent findings indicate that W-188 may also downregulate expression of endogenous Bcl-2 in cells that naturally have high levels of this protein.

Ramos B lymphoma cells = assay: Dox cytotoxicity by trypan blue exclusion in Ramos cells; type: cell-based; details: 24 hr
Experimental: In the present study, the sensitizing activity of W-188 and W-143 was tested in the Raji and Ramos cell lines. Since these two human B lymphoma lines naturally express high levels of anti-apoptotic Bcl-2 proteins, they may be more clinically relevant than the transfected HL-60-Bcl-2 line.
The sensitizing effects of W-143 and W-188 were first tested on these lines in vitro. […] Ramos cells were cultured with different concentrations of Dox with and without W-143 or W-188 at 20 μg/ml for 24 hr, and then viability assessed microscopically by counting at least 100 cells.

mice = assay: Histopathological analysis of internal organs after xenograft treatment; type: in vivo, nude mice; details: radiation + W-188 200 mg/kg; thirty days after treatment
Experimental: Thirty days after treatment, three mice that were given radiation+W-188 200 mg/kg (the optimal treatment in this experiment) were sacrificed and internal organs removed and processed for histopathological analysis by a board-certified pathologist at a commercial lab.

HL-60 neo cells = assay: DNA fragmentation (release of 3H-labeled DNA fragments) in vector control HL-60 neo cells; type: cell-based, human; details: neo cell lines (HL-60 neo, PW neo); compound added to inducers
Experimental: The present study evaluated the ability of W-188 to sensitize Bcl-2-overexpressing cells to induce apoptosis. The human myelogenous leukemia, HL-60, and the human B cell leukemia, PW, normally express very low levels of Bcl-2. As a model system, W-188 and various analogs and derivatives were tested in normal HL-60 and PW cells and in Bcl-2-transfected HL-60 and PW cells that overexpress high levels of Bcl-2 (see Gilbert et al., J. Cell Physiol., 1996, 171:299).
As depicted in FIG. 4, HL-60 cells (Panel A) and PW cells (Panel B) cells were exposed to various apoptosis inducers: TNF at 5 ng/ml; etoposide at 20 μM; and UV at 0.08 J/cm^2. The release of 3H-labeled DNA fragments was measured after 5 h. Normal HL-60 and PW cells were equally sensitive to apoptosis inducers as compared with cells that were transfected with vector encoding neomycin resistance (HL-60 neo and PW neo) only. […] W-188 alone was nontoxic. The addition of W-188 to the neo cell lines caused a 1.5-2 fold increase in DNA fragmentation in response to the various apoptosis inducers.

HL-60-Bcl-2 cells = assay: 10 day colony formation assay, HL-60-Bcl-2; type: cell-based, human; details: not shown
From the text: (§2) LY-ar was highly resistant to apoptosis induced by y-radiation. […] The apparent selective effects of W-188 may be due to the preferential intracellular accumulation of porphyrin compounds in transformed cells as opposed to normal cells reported previously (Bugelski, P. J., et al., Cancer Res., 1981, 41:4606).

GSH = assay: Intracellular GSH levels; type: cell-based
From the text: as §1

[1] = Body weight of RIF-1 tumor bearing mice
From the text: Groups of five mice each were inoculated s.c. with RIF-1 cells. The tumors were allowed to grow for 12 days to a size of 0.5 cm diameter, which was designated day 0. […] The mice were weighed and the tumor size measured every day.

HS-treated U937 cells = assay: DNA fragmentation in heat shock-treated U937 cells; type: cell-based
Experimental: U937 cells received either no heat shock (HS) treatment or HS treatment at 42° C. for 30 min followed by recovery for 3 hr. The cells were then treated with etoposide or TNF with and without W-188, which alone was nontoxic. After 3 hr, DNA fragmentation was measured by release of ^3H-labeled DNA. As expected, U937 cells exposed to HS treatment were completely resistant to etoposide or TNF-induced DNA fragmentation (FIG. 7).

LY-ar cells [2] = assay: Radiation-induced DNA fragmentation in LY-ar cells; type: cell-based, murine; details: γ-radiation in the presence of W-188; FIG. 10
Experimental: Additional studies were performed to determine if W-188 could also sensitize cells that naturally express high levels of Bcl-2. Clones were isolated from the murine B cell lymphoma, LY, that naturally express low levels of Bcl-2 (LY-as) or high levels (LY-ar), as described previously (Mirkovic, N., et al., Oncogene, 1997, 15:1461).
as §2

LY-ar cells [3] = assay: 10 day colony formation assay, LY-ar; type: cell-based, murine; details: not shown
From the text: as §2

[4] = tested on: normal rat intestinal epithelial cells; assay: Toxic effects of etoposide on normal intestinal epithelial cells; type: cell-based
From the text: as §2

PW cells = assay: Subcellular distribution of W-188 in PW cells (absorbance at 380 nm); type: in vitro ADME, human
Experimental: A method to measure the subcellular localization of this compound was developed by the inventors of the present invention. Because of its distinctive absorbance spectrum, W-188 can be detected in cell and tissue extracts by measuring absorbance at 380 nm, and quantitated relative to a standard curve constructed with known amounts of W-188. HL-60 and PW cells containing vector control or overexpressing Bcl-2 were incubated with W-188 followed by cell lysis and isolation of nuclei, mitochondria, and cytotol by differential centrifugation.
Furthermore, it can be seen that nuclei and mitochondria from cells overexpressing Bcl-2 accumulated higher levels of W-188 than the vector control cells. These findings are consistent with the hypothesis that W-188 may counteract the protective effects of Bcl-2 mediated at both the mitochondria as well as the nucleus.

HL-60 Bcl-2 cells = assay: DNA fragmentation (release of 3H-labeled DNA fragments) in Bcl-2-transfected HL-60 cells; type: cell-based, human
[5] = W-188 + etoposide, HL-60-Bcl-2 and LY-ar cells

Structure (SMILES): CCC1=C(C)C(/C=C2\NC(=O)C(C)=C2CC)=NC/1=C\c1[nH]c(/C=C2\NC(=O)C(C)=C2CC)c(C)c1CC [W-188, etiobiliverdin-IV]
- Reversal of the effect of overexpression of Bcl-2 (overexpression of Bcl-2): completely reversed the effect of overexpression of Bcl-2
- Caspase 3 activity (DEVDase) (caspase 3; [5]): activation of caspase 3
- Caspase 3 activity (DEVDase) (caspase 3; W-188 alone): did not affect intracellular levels of GSH or caspase 3 activity
- Toxicity of compound alone (Ramos B lymphoma cells; 20 μg/ml, no Dox): completely nontoxic
- Increase of cytotoxicity mediated by Dox (Ramos B lymphoma cells; compound 20 μg/ml + Dox, FIG. 6): over two fold
- Histopathology of heart, lung, liver, spleen, kidney, stomach, intestine (mice): All tissues examined were found to be normal
- Increase in DNA fragmentation in response to apoptosis inducers (HL-60 neo cells): 1.5-2 fold
- Sensitization to cell death mediated by etoposide and chlorambucil (HL-60-Bcl-2 cells): sensitized HL-60-Bcl-2 and LY-ar cells to cell death mediated by etoposide and chlorambucil
- Intracellular levels of GSH (GSH; [5]): caused depletion of GSH
- Intracellular levels of GSH (GSH; W-188 alone): did not affect intracellular levels of GSH or caspase 3 activity
- Body weight ([1]; W-188 + Dox 5 mg/kg, FIG. 12): did lose weight, but not much more than those mice treated with Dox 5 mg/kg alone
- Body weight ([1]; W-188 alone, data not shown): did not show any decrease in weight
- Etoposide or TNF-induced DNA fragmentation after HS treatment (HS-treated U937 cells; HS 42° C. 30 min, recovery 3 hr, 3 hr assay, FIG. 7): levels of etoposide or TNF-induced DNA fragmentation comparable to that seen in normal U937 cells
- Toxicity of compound alone (HS-treated U937 cells; W-188 alone): nontoxic
- Radiation-induced DNA fragmentation (LY-ar cells [2]): underwent DNA fragmentation at levels equal to or exceeding that of LY-as treated with radiation
- Sensitization to cell death mediated by etoposide and chlorambucil (LY-ar cells [3]): sensitized HL-60-Bcl-2 and LY-ar cells to cell death mediated by etoposide and chlorambucil
- Effect on toxic effects of etoposide on normal cells [4]: did not increase the toxic effects of etoposide
- W-188 (μg/mg protein), Cytosol (PW cells; PW Bcl-2): 0 μg/mg protein
- W-188 (μg/mg protein), Mitochondria (PW cells; PW Bcl-2): 4.5 μg/mg protein
- W-188 (μg/mg protein), Nuclei (PW cells; PW Bcl-2): 166 μg/mg protein
- W-188 (μg/mg protein), Cytosol (PW cells; PW neo): 0 μg/mg protein
- W-188 (μg/mg protein), Mitochondria (PW cells; PW neo): 2.5 μg/mg protein
- W-188 (μg/mg protein), Nuclei (PW cells; PW neo): 133 μg/mg protein
- % DNA Fragmentation (HL-60 Bcl-2 cells; Exp 1, etoposide 5 μM + compound 5 μM): 40%
- % DNA Fragmentation (HL-60 Bcl-2 cells; Exp 1, etoposide 5 μM + compound 10 μM): 76%
- % DNA Fragmentation (HL-60 Bcl-2 cells; Exp 2, etoposide 10 μM + compound 10 μM): 62%
- % DNA Fragmentation (HL-60 Bcl-2 cells; Exp 3, etoposide 5 μM + compound 10 μM): 92%
- % DNA Fragmentation (HL-60 Bcl-2 cells; Exp 4, etoposide 5 μM + compound 10 μM): 59%
- % DNA Fragmentation (HL-60 Bcl-2 cells; Exp 5, etoposide 10 μM + compound 10 μM): 55%
- Sensitization to DNA fragmentation induced by TNF, etoposide and UV light (HL-60 Bcl-2 cells; TNF 5 ng/ml, etoposide 20 μM, UV 0.08 J/cm^2, 5 h, FIG. 4A): dose-dependently sensitized HL-60 Bcl-2 cells to DNA fragmentation induced by all three agents
- Optimal doses giving DNA fragmentation comparable with HL-60 neo cells (HL-60 Bcl-2 cells; TNF, etoposide or UV, 5 h): 25 to 50 µg/mL
- Toxicity of compound alone (HL-60 Bcl-2 cells; W-188 alone, no apoptosis inducer): nontoxic
- Bcl-2-sensitizing activity (in words) (HL-60 Bcl-2 cells; tumor cells overexpressing Bcl-2, Table 4): most potent
